From patent US7432342B2, “Kinase anchor protein muteins, peptides thereof and related documents” (Sequenom, Inc., priority 2002, dated 2008) come the findings set out here.

Where two headings read alike, the source gives them in different places. Ends that are not written are not given here. Peptide text beside a SMILES is read from it. * marks the point of attachment. X1 = CN(C)c1ccc2c(c1)Oc1cc(N(C)C)ccc1C21OC(=O)c2cc(N3C(=O)CC(*)C3=O)ccc21

One test addresses T1, GFP-RIIα (Mus musculus, UniProt P12367).
T1 construct: Full-length bovine RIα and mouse RIIα were fused with green fluorescent protein (GFP) by subcloning into pEGFPN1; expressed in transfected cells; host or cells: 10T(1/2) cells
The test can be described thus: Co-localization with mitochondria-targeted Flag-tagged AKB domain constructs in 10T(1/2) cells (Example 10). Particulars: mutations of Table 7 in AKB domain of C-terminal 156 residues of mouse D-AKAP2, mitochondria-targeted. The class given is cell-based. As for the experimental part:
(§1) To test the ability of the mutations set forth in Table 7 [AKB(dual), AKB(RI), AKB(RII) and AKB(null)] to co-localize with selected PKA isoforms in cells, a flag-tagged AKB domain construct targeted to the mitochondria was prepared using the AKB domain and a mitochondria targeting sequence from D-AKAP1 as set forth in Example 3. The respective mutations were then incorporated into the AKB domain of D-AKAP2 to test for selectivity in the cell. The targeting constructs of the AKB domain were made by fusing the C-terminal 156 residues of mouse D-AKAP2 with the N-terminal mitochondrial-targeting domain of D-AKAP1 (residues 1-30 of D-AKAP1a). After adding a flag tag to the C-terminus, the constructs were sub-cloned into the pCI vector (Promega, Madison, Wis.). The mutations of the AKB domain corresponding to those set forth in Table 7 herein were made with the QuickChange mutagenesis method (Makarova et al. (2000) Biotechniques, 29:970-972). Full-length bovine RIα and mouse RIIα were fused with green fluorescent protein (GFP) by subcloning into pEGFPN1 (Clontech, Palo Alto, Calif.). Equal amounts of the targeting constructs and either GFP-RIα or GFP-RIIα constructs were co-transfected into 10T(1/2) cells using Lipofectamin (Invitrogen, Carlsbad, Calif.). The AKB domain was detected by immuno-staining with monoclonal antibodies against the Flag-tag (Kodak, Rochester, N.Y.) followed by a rhodamine-conjugated secondary antibody (Jackson Lab, Bar Harbor, Me.). The cells were imaged using a radiance confocal microscope (BioRad, Hercules, Calif.).

For another test, the target named is T2, full-length RIα (Bos taurus, UniProt P00514).
T2 construct: Full-length bovine RIα was expressed in E. coli 222; made in house; host or cells: E. coli 222
The test can be described thus: Fluorescence anisotropy binding assay (Example 9). On the set-up: species or system bovine. Particulars: compared with the unsubstituted peptide. As to the method:
(§2) Each peptide was fluorescently labeled using a 25 mM solution of tetramethylrhodamine-5-maleimide (catalog number T-6027; Molecular Probes, Eugene, Oreg.) dissolved in DMSO. The peptides were labeled by incubating with a three-fold molar excess of the label for 16 hr at 4° C. in 20 mM Tris, pH 7.0 and 1 mM tris-(2-carboxyethyl) phosphine, hydrochloride (TCEP) (non-thiol reducing agent, Molecular Probes). The sample was quenched with 1 mM, β-mercaptoethanol to bind to any unreacted maleimide and diluted with 0.1% TFA for purification by HPLC. The labeled peptides were resolved using a C18 column with a water/acetonitrile gradient containing 0.1% TFA. The concentration of each peptide was determined by absorbance at 541 nm after diluting into 100% methanol and using an extinction coefficient of 91,000 M^−1 cm^−1 for absorbance of the rhodamine label at 541 nm (Molecular Probes Catalog). The peptides were stored at 4° C. in 50% acetonitrile.
(§3) Full-length murine RIIα was expressed in E. coli BL21 (DE3). Full-length bovine RIα was expressed in E. coli 222. The proteins were purified as previously described using a cAMP affinity resin (Hamuro et al. (2002) J. Mol. Biol., 321:703). The protein concentrations were determined using the following extinction coefficients at 280 nm, which were calculated using a standard concentration of protein calibrated using quantitative amino acid analysis: RIα 52,603 M^−1 cm^−1 and RIIα 62,456 M^−1 cm^−1. The proteins were stored at 4° C. in 50 mM MES pH 5.8, 50 mM NaCl, 2 mM EDTA, 2 mM EGTA, 2 mM DTT.
(§4) Binding of each fluorescently labeled peptide to the regulatory subunits was monitored using fluorescence anisotropy. RIα and RIIα were serially diluted beginning at 1 μM and 0.1 μM, respectively, into 10 mM HEPES pH 7.4, 0.15 M NaCl, 3 mM EDTA, 0.005% Surfactant P20 (Biacore) containing either 10 nM or 1 nM of fluorescently labeled peptide for RIα and RIIα, respectively. The samples were equilibrated for at least 1 hour at room temperature and fluorescence anisotropy monitored using a Fluoromax-2 (Jobin Yvon Horiba, SPEX Division, Edison, N.J.) equipped with Glan-Thompson polarizers. The rhodamine-labeled peptide was excited at 541 nm (5-10 nm bandpass) and emission monitored at 575 nm (5-10 nm bandpass). The anisotropy was calculated directly with the Fluoromax software using the following equation: r=(IVV−G*IVH)/(IVV+2G*IVH) (1) where r is the steady state anisotropy, IVV is the fluorescence intensity with the excitation and emission polarizers oriented in the vertical position (0° from normal), IVH is the fluorescence intensity with the excitation polarizer in the vertical position and the emission polarizer oriented in the horizontal position (90°) relative to the excitation polarizer, G is the monochromator grating factor which is equal to (IHV/IHH), with the first subscript indicating the position of the excitation polarizer and the second subscript indicating position of the emission polarizer. Three separate binding experiments were averaged and fit to a 1:1 binding model using the non-linear regression application in GraphPad Prism version 3.00 (GraphPad Software, San Diego, Calif.).
A general note: In fluorescence polarisation assays a small probe gives low polarisation when free and higher when bound to something large.

A further test addresses T3, GFP-RIα (Bos taurus, UniProt P00514).
T3 construct: Full-length bovine RIα and mouse RIIα were fused with green fluorescent protein (GFP) by subcloning into pEGFPN1; expressed in transfected cells; host or cells: 10T(1/2) cells
The test can be described thus: Co-localization with mitochondria-targeted Flag-tagged AKB domain constructs in 10T(1/2) cells (Example 10). The class given is cell-based, bovine. The following applies: mutations of Table 7 in AKB domain of C-terminal 156 residues of mouse D-AKAP2, mitochondria-targeted. As for the experimental part: as §1

The target of another test is T4, full-length RIIα (Mus musculus, UniProt P12367).
T4 construct: Full-length murine RIIα was expressed in E. coli BL21 (DE3); made in house; host or cells: E. coli BL21 (DE3)
Put plainly: Fluorescence anisotropy binding assay (Example 9). The following applies: compared with the unsubstituted peptide. Also noted: species or system murine. As for the experimental part: as §2, §3, §4

The target in the next test is RIα (Bos taurus, UniProt P00514). The test can be described thus: Fluorescence anisotropy binding of labeled 27-mer AKB Ile/Val peptides (Example 2). Particulars: in vitro; 10 nM labeled peptide. As to the method:
To assess the magnitude of the affinity difference, binding of both Ile/Val variants to the R-subunit isoforms of PKA was analyzed in a quantitative assay. Twenty-seven residue peptides containing the two AKB domain Ile/Val variants (SEQ ID NOs:1 and 2, respectively) of D-AKAP2 with a C-terminal cysteine were synthesized by SynPep Corporation (Dublin, Calif.). The peptides were HPLC (high performance liquid chromatography) purified and mass spectrometry checked. Both peptides were labeled with tetramethyl rhodamine-5-maleiamide (Molecular Probes, Eugene, Oreg.) at the cysteine residue and HPLC purified. Increasing concentrations of RIα and RIIβ, respectively, were equilibrated with 10 nM of peptide for at least one hour at room temperature in 10 mM HEPES, 150 mM NaCl, 3 mM EDTA, 0.005% polysorbate 20. […] Fluorescence anisotropy was monitored using a Fluoromax-2 (Spex, Jobin Yvon Horiba, Edison, N.J.) equipped with polarizers. The fluorophore was excited at 541 nm (5-10 nm bandpass) and emission was monitored at 575 nm (5-10 nm bandpass). […]
Peptides of each AKB Ile/Val variant (SEQ ID NOs:1 and 2) were synthesized and fluorescence-labeled. Binding of the labeled peptides to the regulatory subunit isoforms was monitored using a fluorescence assay in which binding of the peptide was proportional to an increase in steady state anisotropy. […]

The target in another test is PKA-RIα-GFP (Bos taurus, UniProt P00514). Put plainly: Surface plasmon resonance (BIAcore CM5 chips). The class given is binding. As for the experimental part:
Two 27-mer peptides representing the Ile and Val variants (SEQ ID NOs:1 and 2, respectively) were synthesized and purified in milligram quantities and the affinity to PKA-RIα-GFP was determined using well-known surface plasmon resonance in combination with BIAcore chips (see, e.g., Current Opinion in Biotechnology (1997) 8:50-57; Current Opinion in Biotechnology (1994) 5:389-395; Current Opinion in Biotechnology (1994) 5:65-71; Structure (1995) 3:969; Current Biology (1995) pp. 699-705; Analytical Biochemistry (1991) 201:197-210; and macinfac.bio.unc.edu/biacore.html). PKA-RIα-GFP was coupled to BIAcore CM5 chips. BSA was immobilized on control chips.
The affinities in this assay are lower compared to those determined by fluorescence anisotropy. The most likely reason is that in this study the signal difference between the flow cell with the regulatory subunit and the control protein BSA was measured, such that slight unspecific binding to BSA directly reduces the apparent affinity. However, similar to previous results, an affinity difference of PKA-RIα-GFP to both allelic 27-mer peptides was observed (Table 6).

PKA-RIα-GFP, sequence (P00514 1-109 limits assumed): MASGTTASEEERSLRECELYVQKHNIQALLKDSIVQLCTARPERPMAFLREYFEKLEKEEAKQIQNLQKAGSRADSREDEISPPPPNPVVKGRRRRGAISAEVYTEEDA
RIα, sequence (P00514 whole entry, the tested form may be a part, canonical isoform): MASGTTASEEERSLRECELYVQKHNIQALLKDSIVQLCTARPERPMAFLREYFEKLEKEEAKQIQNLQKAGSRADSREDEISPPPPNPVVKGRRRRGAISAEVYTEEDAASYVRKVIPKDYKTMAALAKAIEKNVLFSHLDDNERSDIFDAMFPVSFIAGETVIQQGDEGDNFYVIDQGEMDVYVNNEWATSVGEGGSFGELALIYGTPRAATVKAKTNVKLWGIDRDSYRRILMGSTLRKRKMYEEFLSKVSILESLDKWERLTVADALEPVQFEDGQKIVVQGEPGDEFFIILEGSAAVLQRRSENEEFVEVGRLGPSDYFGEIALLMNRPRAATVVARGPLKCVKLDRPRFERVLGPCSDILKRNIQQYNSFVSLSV
T3 sequence (P00514 whole entry, the tested form may be a part): as the sequence (P00514 whole entry, the tested form may be a part, canonical isoform) above
T2 sequence (P00514 whole entry): as the sequence (P00514 whole entry, the tested form may be a part, canonical isoform) above
T1 sequence (P12367 whole entry, the tested form may be a part): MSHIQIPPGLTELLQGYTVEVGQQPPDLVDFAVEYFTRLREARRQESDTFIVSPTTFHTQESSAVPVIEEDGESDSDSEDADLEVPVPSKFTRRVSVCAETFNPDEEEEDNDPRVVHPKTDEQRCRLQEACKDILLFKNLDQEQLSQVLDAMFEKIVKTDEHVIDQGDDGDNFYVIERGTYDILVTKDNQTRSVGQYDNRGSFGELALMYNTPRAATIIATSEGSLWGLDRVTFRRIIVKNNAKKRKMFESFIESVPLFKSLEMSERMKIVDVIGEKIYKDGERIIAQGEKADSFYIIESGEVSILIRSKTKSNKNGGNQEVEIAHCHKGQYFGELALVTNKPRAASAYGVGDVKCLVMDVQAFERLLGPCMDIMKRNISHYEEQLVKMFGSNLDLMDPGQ
T4 sequence (P12367 whole entry): as the sequence (P12367 whole entry, the tested form may be a part) above

For the molecule `CC[C@H](C)[C@H](NC(=O)[C@H](CCCCN)NC(=O)[C@H](Cc1c[nH]c2ccccc12)NC(=O)[C@H](C)NC(=O)[C@H](CC(C)C)NC(=O)[C@H](CCC(=O)O)NC(=O)[C@H](CCC(=O)O)NC(=O)[C@H](CCC(N)=O)NC(=O)[C@H](C)NC(=O)[C@H](CCC(=O)O)NC(=O)[C@H](CC(=O)O)NC(=O)[C@@H](NC(=O)[C@H](CC(N)=O)NC(=O)CNC(=O)[C@H](CCC(N)=O)NC(=O)[C@@H](N)C(C)C)[C@@H](C)O)C(=O)N[C@@H](CCC(=O)O)C(=O)N[C@@H](CCCCN)C(=O)N[C@@H](CCSC)C(=O)N[C@H](C(=O)N[C@@H](Cc1c[nH]c2ccccc12)C(=O)N[C@@H](CO)C(=O)N[C@@H](CC(=O)O)C(=O)N[C@H](C(=O)N[C@@H](CCSC)C(=O)N[C@@H](CCC(N)=O)C(=O)N[C@@H](CCC(N)=O)C(=O)N[C@@H](CSC1CC(=O)N(c2ccc3c(c2)C(=O)OC32c3ccc(N(C)C)cc3Oc3cc(N(C)C)ccc32)C1=O)C(N)=O)C(C)C)[C@@H](C)CC` (stereo partly shown) [AKB (null)] (H-VQGNTDEAQEELAWKIEKMIWSDVMQQC(X1)-NH2; N-terminus assumed), at GFP-RIIα, the “recruitment of GFP-RIIα to the mitochondria” value was “could not co-localize either GFP-RIα or RIIα”. Moreover, the “binding to RIα, in words” value at full-length RIα is “bound very poorly”. The “recruitment of GFP-RIα to the mitochondria” value at GFP-RIα was “could not co-localize either GFP-RIα or RIIα”. Besides, the “binding to RIIα, in words” value on full-length RIIα is listed as “could not be detected”.

As to “VQGNTDEAQEELAWKIAKMIVSDVMQQ (not fully specified (N-terminus); listed as Homo sapiens) [SEQ ID NO:2]”, in the test with RIα, the “binding affinity to RIα compared to the Ile variant” value is “nearly three-fold increase in binding affinity”.

For the molecule `CC[C@H](C)[C@H](NC(=O)[C@H](CCCCN)NC(=O)[C@H](Cc1c[nH]c2ccccc12)NC(=O)[C@H](C)NC(=O)[C@H](CC(C)C)NC(=O)[C@H](CCC(=O)O)NC(=O)[C@H](CCC(=O)O)NC(=O)[C@H](CCC(N)=O)NC(=O)[C@H](C)NC(=O)[C@H](CCC(=O)O)NC(=O)[C@H](CC(=O)O)NC(=O)[C@@H](NC(=O)[C@H](CC(N)=O)NC(=O)CNC(=O)[C@H](CCC(N)=O)NC(=O)[C@@H](NC(C)=O)C(C)C)[C@@H](C)O)C(=O)N[C@@H](C)C(=O)N[C@@H](CCCCN)C(=O)N[C@@H](CCSC)C(=O)N[C@H](C(=O)N[C@H](C(=O)N[C@@H](CO)C(=O)N[C@@H](CC(=O)O)C(=O)N[C@H](C(=O)N[C@@H](CCSC)C(=O)N[C@@H](CCC(N)=O)C(=O)N[C@@H](CCC(N)=O)C(N)=O)[C@@H](C)CC)C(C)C)[C@@H](C)CC` [SEQ ID NO:16] (Ac-VQGNTDEAQEELAWKIAKMIVSDIMQQ-NH2), the Kd on PKA-RIα-GFP (PKA-RIα-GFP coupled to chip (1681 RU), BSA control chip, read-out: PKA-RIα-GFP binding affinity) was found to be 0.86 µM. On to `CC[C@H](C)[C@H](NC(=O)[C@H](CCCCN)NC(=O)[C@H](Cc1c[nH]c2ccccc12)NC(=O)[C@H](C)NC(=O)[C@H](CC(C)C)NC(=O)[C@H](CCC(=O)O)NC(=O)[C@H](CCC(=O)O)NC(=O)[C@H](CCC(N)=O)NC(=O)[C@H](C)NC(=O)[C@H](CCC(=O)O)NC(=O)[C@H](CC(=O)O)NC(=O)[C@@H](NC(=O)[C@H](CC(N)=O)NC(=O)CNC(=O)[C@H](CCC(N)=O)NC(=O)[C@@H](NC(C)=O)C(C)C)[C@@H](C)O)C(=O)N[C@@H](C)C(=O)N[C@@H](CCCCN)C(=O)N[C@@H](CCSC)C(=O)N[C@H](C(=O)N[C@H](C(=O)N[C@@H](CO)C(=O)N[C@@H](CC(=O)O)C(=O)N[C@H](C(=O)N[C@@H](CCSC)C(=O)N[C@@H](CCC(N)=O)C(=O)N[C@@H](CCC(N)=O)C(N)=O)C(C)C)C(C)C)[C@@H](C)CC` [SEQ ID NO:15] (Ac-VQGNTDEAQEELAWKIAKMIVSDVMQQ-NH2), for which the Kd on PKA-RIα-GFP stood at 0.5 µM.
